For 17 compounds, IC50 results are on record in US6960597B2, “Aza-bridged-bicyclic amino acid derivatives as α4 integrin antagonists” (Orth-McNeil Pharmaceutical, Inc., priority 2000, dated 2005).

Read-outs that look alike come from different tables or passages of the source. Where only a bound is given, the exact number is not on record here.

The target in experiment [1] is T1, α4β1 integrin receptor (Homo sapiens, UniProt P05556+P13612).
T1 construct: Ramos Cell Adhesion Assay (α4β1 Mediated Adhesion/VCAM-1); endogenous in cells; host or cells: Ramos cells
As to the kind of experiment: Ramos Cell Adhesion Assay (α4β1 Mediated Adhesion/VCAM-1). Type of experiment: cell-based. In outline:
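Plates coated overnight at 4° C with recombinant hVCAM-1 (4.0 μg/mL, pH 9.0), then blocked with PBS/1% BSA. Ramos cells labelled with 5 μM Calcein AM adhered 1 h at room temperature with compound; after washing, cells were lysed in SDS and fluorescence read at 485/530 nm.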

Experiment [2] deals with T2, human α4β7 (Homo sapiens, UniProt P13612+P26010).
T2 construct: expressed in transfected cells
T2 sequence (P13612 34-1032): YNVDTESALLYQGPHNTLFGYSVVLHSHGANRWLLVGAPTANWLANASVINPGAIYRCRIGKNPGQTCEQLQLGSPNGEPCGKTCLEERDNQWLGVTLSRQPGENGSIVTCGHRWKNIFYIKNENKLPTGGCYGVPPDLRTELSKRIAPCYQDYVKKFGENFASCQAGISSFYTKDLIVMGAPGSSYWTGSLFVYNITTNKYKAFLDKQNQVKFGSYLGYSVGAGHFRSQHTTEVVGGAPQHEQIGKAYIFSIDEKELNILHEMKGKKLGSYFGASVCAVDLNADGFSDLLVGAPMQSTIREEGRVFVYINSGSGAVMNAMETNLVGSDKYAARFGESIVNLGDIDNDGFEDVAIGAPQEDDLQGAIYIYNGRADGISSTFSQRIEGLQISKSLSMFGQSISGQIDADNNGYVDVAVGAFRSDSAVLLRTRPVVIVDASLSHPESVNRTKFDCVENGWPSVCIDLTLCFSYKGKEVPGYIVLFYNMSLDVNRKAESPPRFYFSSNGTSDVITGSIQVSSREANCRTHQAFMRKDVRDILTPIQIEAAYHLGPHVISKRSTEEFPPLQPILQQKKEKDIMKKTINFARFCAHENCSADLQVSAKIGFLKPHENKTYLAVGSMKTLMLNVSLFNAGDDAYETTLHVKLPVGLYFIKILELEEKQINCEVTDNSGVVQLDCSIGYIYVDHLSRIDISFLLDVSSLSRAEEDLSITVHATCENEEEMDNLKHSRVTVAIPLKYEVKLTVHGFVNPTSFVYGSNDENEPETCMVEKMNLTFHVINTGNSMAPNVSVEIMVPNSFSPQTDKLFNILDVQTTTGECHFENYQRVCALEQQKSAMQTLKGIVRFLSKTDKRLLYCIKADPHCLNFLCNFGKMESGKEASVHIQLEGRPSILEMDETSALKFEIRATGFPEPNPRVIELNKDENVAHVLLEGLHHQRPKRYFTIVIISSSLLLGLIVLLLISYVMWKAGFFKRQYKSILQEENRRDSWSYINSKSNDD
T2 sequence (P26010 20-798): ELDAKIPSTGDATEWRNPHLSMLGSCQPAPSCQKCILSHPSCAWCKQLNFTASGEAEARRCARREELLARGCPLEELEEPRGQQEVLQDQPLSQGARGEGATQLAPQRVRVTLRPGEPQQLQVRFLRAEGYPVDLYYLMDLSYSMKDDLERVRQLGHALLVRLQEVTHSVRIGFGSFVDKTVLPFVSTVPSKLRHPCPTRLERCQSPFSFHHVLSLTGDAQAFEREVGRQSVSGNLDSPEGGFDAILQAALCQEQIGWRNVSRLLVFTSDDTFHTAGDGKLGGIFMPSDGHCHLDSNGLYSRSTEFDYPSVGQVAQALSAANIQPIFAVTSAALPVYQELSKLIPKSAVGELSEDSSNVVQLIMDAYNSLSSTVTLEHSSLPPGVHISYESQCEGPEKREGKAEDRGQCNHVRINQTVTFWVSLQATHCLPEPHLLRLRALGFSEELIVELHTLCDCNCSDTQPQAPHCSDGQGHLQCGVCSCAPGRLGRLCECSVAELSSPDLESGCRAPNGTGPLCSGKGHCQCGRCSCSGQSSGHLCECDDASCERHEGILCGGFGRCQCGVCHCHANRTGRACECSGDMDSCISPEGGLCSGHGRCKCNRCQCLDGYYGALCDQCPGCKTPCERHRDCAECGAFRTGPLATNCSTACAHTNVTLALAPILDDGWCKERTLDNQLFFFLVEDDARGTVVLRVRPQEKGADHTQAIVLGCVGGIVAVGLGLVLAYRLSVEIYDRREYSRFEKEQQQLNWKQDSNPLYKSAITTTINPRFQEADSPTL
Description: α4β7-K562 Cell Adhesion Assay (α4β7 Mediated Adhesion/VCAM-1). Format: cell-based. In short, it runs like this: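 K562 cells stably expressing human α4β7, labelled with 5 μM Calcein AM, adhered for 1 h at room temperature to plates coated with recombinant hVCAM-1 (4.0 μg/mL) in the presence of compound. After washing, cells were lysed in Tris/SDS. Bound cells were read by fluorescence at 485/530 nm.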

Setting [3] is: Table III, μM, read-out: Inhibition of Binding of Ramos Cells to Immobilized VCAM-1 IC50.
[4] abbreviates: Table IV, μM, read-out: Inhibition of Binding of K562 Cells to Immobilized VCAM-1 IC50.
[5] abbreviates: Table III, read-out: Inhibition of Binding of Ramos Cells to Immobilized VCAM-1 IC50.
Where [6] appears, read: Table IV, read-out: Inhibition of Binding of K562 Cells to Immobilized VCAM-1 IC50.

T1 sequence (P05556 21-798, one chain of several): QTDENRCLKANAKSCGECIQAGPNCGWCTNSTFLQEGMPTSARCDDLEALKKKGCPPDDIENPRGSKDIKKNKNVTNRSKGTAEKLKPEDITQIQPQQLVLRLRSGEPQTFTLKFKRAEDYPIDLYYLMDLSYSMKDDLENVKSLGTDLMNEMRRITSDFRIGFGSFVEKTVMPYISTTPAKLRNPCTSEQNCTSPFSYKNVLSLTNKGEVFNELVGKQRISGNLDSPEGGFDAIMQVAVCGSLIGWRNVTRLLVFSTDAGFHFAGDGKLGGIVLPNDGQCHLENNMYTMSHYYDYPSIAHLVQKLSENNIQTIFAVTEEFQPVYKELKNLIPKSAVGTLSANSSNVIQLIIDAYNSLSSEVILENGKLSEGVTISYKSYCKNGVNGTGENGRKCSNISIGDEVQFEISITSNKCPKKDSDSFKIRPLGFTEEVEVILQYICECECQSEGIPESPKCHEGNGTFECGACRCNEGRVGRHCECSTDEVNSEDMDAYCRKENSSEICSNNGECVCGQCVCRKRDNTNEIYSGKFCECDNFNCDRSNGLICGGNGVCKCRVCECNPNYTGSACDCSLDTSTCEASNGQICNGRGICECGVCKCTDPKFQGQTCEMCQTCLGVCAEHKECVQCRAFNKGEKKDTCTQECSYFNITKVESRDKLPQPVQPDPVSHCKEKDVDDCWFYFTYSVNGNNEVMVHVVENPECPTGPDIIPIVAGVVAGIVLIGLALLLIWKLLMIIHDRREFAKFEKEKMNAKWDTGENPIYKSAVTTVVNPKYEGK

Broadly, the IC50 is the concentration that gives 50% inhibition. Turning to `Cc1ccc(S(=O)(=O)N2C3CCC(CC3)C2C(=O)N[C@@H](Cc2cccc(NC(=O)c3c(F)cccc3F)c2)C(=O)O)cc1` (stereo partly drawn) [Cpd 35, 3-[(2,6-difluorobenzoyl)amino]-N-[[2-[(4-methylphenyl)sulfonyl]-2-azabicyclo[2.2.2]oct-3-yl]carbonyl]-L-phenylalanine], the half-inhibitory concentration (IC50) in experiment [1] (setting [3]) is more than 5 µM; in experiment [2] (setting [4]), more than 10 µM.
Turning to `COc1cccc(OC)c1C(=O)Nc1cccc(C[C@H](NC(=O)C2C3CCC(CC3)N2S(=O)(=O)c2ccc(C)cc2)C(=O)O)c1` (some centres unmarked) [Cpd 36, 3-[(2,6-dimethoxybenzoyl)amino]-N-[[2-[(4-methylphenyl)sulfonyl]-2-azabicyclo[2.2.2]oct-3-yl]carbonyl]phenylalanine], the IC50 in experiment [1] (setting [3]) is more than 5 µM; in experiment [2] (setting [4]), more than 10 µM.
The corresponding values for `Cc1ccc(S(=O)(=O)N2C3CCC(CC3)C2C(=O)N[C@@H](Cc2cccc(NC(=O)c3c(Cl)cccc3Cl)c2)C(=O)O)cc1` (some centres unmarked) [Cpd 37, 3-[(2,6-dichlorobenzoyl)amino]-N-[[2-[(4-methylphenyl)sulfonyl]-2-azabicyclo[2.2.2]oct-3-yl]carbonyl]phenylalanine] are more than 5 µM and more than 10 µM.
The corresponding values for `CN(C(=O)C1C2CCC(CC2)N1S(=O)(=O)c1ccccc1)[C@@H](Cc1ccc(OCc2c(Cl)cccc2Cl)cc1)C(=O)O` (some centres unmarked) [Cpd 38, O-[(2,6-dichlorophenyl)methyl]-methyl-N-[[2-(phenylsulfonyl)-2-azabicyclo[2.2.2]oct-3-yl]carbonyl]tyrosine] are more than 5 µM and more than 10 µM.
The corresponding values for `CN(C(=O)[C@H]1C2CCC(CC2)N1S(=O)(=O)c1ccccc1)[C@@H](Cc1ccc(NC(=O)c2c(Cl)cccc2Cl)cc1)C(=O)O` [Cpd 39, 4-[(2,6-dichlorobenzoyl)amino]-N-methyl-N-[[(3R)-2-(phenylsulfonyl)-2-azabicyclo[2.2.2]oct-3-yl]carbonyl]-L-phenylalanine] are more than 5 µM and more than 10 µM.
In the case of `O=C(N[C@@H](Cc1ccc(OCc2c(Cl)cccc2Cl)cc1)C(=O)O)C1C2C=CC(CC2)N1S(=O)(=O)c1ccccc1` (stereo partly drawn) [Cpd 40, O-[(2,6-dichlorophenyl)methyl]-N-[[2-(phenylsulfonyl)-2-azabicyclo[2.2.2]oct-5-en-3-yl]carbonyl]-L-tyrosine], the IC50 in experiment [1] (setting [5]) stood at 0.293 µM; in experiment [2] (setting [6]) it was 2.51 µM.
On to `O=C(O)[C@H](Cc1ccc(OCc2c(Cl)cccc2Cl)cc1)NC(=O)[C@H]1C2CCC(CC2)N1S(=O)(=O)c1ccccc1` [Cpd 41, O-[(2,6-dichlorophenyl)methyl]-N-[[(3R)-2-(phenylsulfonyl)-2-azabicyclo[2.2.2]oct-3-yl]carbonyl]-L-tyrosine], for which the IC50 in experiment [1] (setting [3]) is more than 5 µM; in experiment [2] (setting [4]), more than 10 µM.
Take `O=C(Nc1ccc(C[C@H](NC(=O)C2C3C=CC(CC3)N2S(=O)(=O)c2ccccc2)C(=O)O)cc1)c1c(Cl)cccc1Cl` (stereo partly drawn) [Cpd 42, 4-[(2,6-dichlorobenzoyl)amino]-N-[[2-(phenylsulfonyl)-2-azabicyclo[2.2.2]oct-5-en-3-yl]carbonyl]-L-phenylalanine]: the IC50 is 0.022 µM in experiment [1] (setting [5]) and 0.279 µM in experiment [2] (setting [6]).
Consider `O=C(Nc1ccc(C[C@H](NC(=O)C2C3CCC(CC3)N2S(=O)(=O)c2ccccc2)C(=O)O)cc1)c1c(F)cc(F)cc1F` (stereo partly drawn) [Cpd 43, 4-[(2,4,6-trifluorobenzoyl)amino]-N-[[2-(phenylsulfonyl)-2-azabicyclo[2.2.2]oct-3-yl]carbonyl]-L-phenylalanine], for which the half-inhibitory concentration (IC50) in experiment [1] (setting [5]) was 0.103 µM; in experiment [2] (setting [6]) it was 0.442 µM.
`CC(C)(C)Oc1ccc(C[C@H](NC(=O)C2C3CCC(CC3)N2S(=O)(=O)c2ccccc2)C(=O)O)cc1` (stereo partly drawn) [Cpd 45, O-(1,1-dimethylethyl)-N-[[2-(phenylsulfonyl)-2-azabicyclo[2.2.2]oct-3-yl]carbonyl]-L-tyrosine]: the IC50 in experiment [1] (setting [5]) was 3.17 µM; in experiment [2] (setting [4]), more than 10 µM.
Take `O=C(N[C@@H](CCc1ccccc1)C(=O)O)C1C2CCC(CC2)N1S(=O)(=O)c1ccccc1` (stereo partly drawn) [Cpd 46, α(S)-[[[2-(phenylsulfonyl)-2-azabicyclo[2.2.2]oct-3-yl]carbonyl]amino]-benzenebutanoic acid]: the results for the IC50 in experiment [1] (setting [3]) and in experiment [2] (setting [4]) were more than 5 µM and more than 10 µM, respectively.
`O=C(O)[C@H](Cc1ccc(N2C(=O)c3ccccc3C2=O)cc1)NC(=O)[C@@H]1C2CCC(CC2)N1S(=O)(=O)c1ccccc1` [Cpd 47a, 4-(1,3-dihydro-1,3-dioxo-2H-isoindol-2-yl)-N-[[(3S)-2-(phenylsulfonyl)-2-azabicyclo[2.2.2]oct-3-yl]carbonyl]-L-phenylalanine]: the 50% inhibitory concentration (IC50) came out at 0.026 µM in experiment [1] (Table I, racemic mixtures and resolved (S,S) and (R,S) diastereomers, read-out: Antagonist IC50 Activity α4β1); 0.026 µM in experiment [1] (setting [5]); 0.102 µM in experiment [2] (Table I, racemic mixtures and resolved (S,S) and (R,S) diastereomers, read-out: Antagonist IC50 Activity α4β7).
For the compound `O=C(O)c1ccccc1C(=O)Nc1ccc(C[C@H](NC(=O)[C@@H]2C3CCC(CC3)N2S(=O)(=O)c2ccccc2)C(=O)O)cc1` [Cpd 48, 4-[(2-carboxybenzoyl)amino]-N-[[(3S)-2-(phenylsulfonyl)-2-azabicyclo[2.2.2]oct-3-yl]carbonyl]-L-phenylalanine], the IC50 was more than 5 µM in experiment [1] (setting [3]) and more than 10 µM in experiment [2] (setting [4]).
The corresponding values for `Cc1ccc(C)n1-c1ccc(C[C@H](NC(=O)C2C3CCC(CC3)N2S(=O)(=O)c2ccccc2)C(=O)O)cc1` (stereo partly drawn) [Cpd 49, 4-(2,5-dimethyl-1H-pyrrol-1-yl)-N-[[2-(phenylsulfonyl)-2-azabicyclo[2.2.2]oct-3-yl]carbonyl]-L-phenylalanine] are more than 5 µM and more than 10 µM.
Take `O=C(Nc1ccc(C[C@H](NC(=O)C2C3CCC(CC3)N2S(=O)(=O)c2ccccc2)C(=O)O)cc1)c1ccncc1` (stereo partly drawn) [Cpd 50, 4-[(4-pyridinylcarbonyl)amino]-N-[[2-(phenylsulfonyl)-2-azabicyclo[2.2.2]oct-3-yl]carbonyl]-L-phenylalanine]: the results for the IC50 in experiment [1] (setting [5]) and in experiment [2] (setting [6]) were 0.055 µM and 0.81 µM, respectively.
The corresponding values for `O=C(Nc1ccc(C[C@H](NC(=O)[C@@H]2C3CCC(CC3)N2S(=O)(=O)c2ccccc2)C(=O)O)cc1)c1ccncc1` [Cpd 50a, 4-[(4-pyridinylcarbonyl)amino]-N-[[(3S)-2-(phenylsulfonyl)-2-azabicyclo[2.2.2]oct-3-yl]carbonyl]-L-phenylalanine] are 0.054 µM and 0.223 µM.
Consider `O=C(N[C@@H](Cc1ccc(NS(=O)(=O)c2c(Cl)cccc2Cl)cc1)C(=O)O)C1C2CCC(CC2)N1S(=O)(=O)c1ccccc1` (stereo partly drawn) [Cpd 51, 4-[[(2,6-dichlorophenyl)sulfonyl]amino]-N-[[2-(phenylsulfonyl)-2-azabicyclo[2.2.2]oct-3-yl]carbonyl]-L-phenylalanine], for which the 50% inhibitory concentration (IC50) was 0.784 µM in experiment [1] (setting [5]) and more than 5 µM in experiment [2] (setting [4]).
